Measured values as given in patent publication US20080254445A1, “Prognosis in Cancer Patients Vaccinated with a Cancer Antigen Peptide-Associated Agent” (priority 2003, published 2008).

Columns and labels:
[1] = system: peptide-specific CTL precursors in PBMCs; experiment: Peptide-specific CTL precursors in pre- and post (6th)-vaccination PBMCs by IFN-γ-release assay; assay type: cell-based, human; conditions: post (6th)-vaccination PBMC; positive cases/No. of tested cases (% positive)
[2] = Delayed type hypersensitivity (DTH) skin test; assay type: in vivo, human; conditions: skin test site, first to 6th vaccination; positive cases/No. of tested cases (% positive)
peptide-reactive IgG = experiment: ELISA of peptide-reactive serum IgG in pre- and post-vaccination sera; assay type: in vivo, human; conditions: post (3rd and 6th)-vaccination sera vs pre-vaccination; positive cases/No. of tested cases (% positive)

| Sequence | Increased immune reactions to peptide: CTL activity [1] | Increased immune reactions to peptide: DTH response [2] | Increased immune reactions to peptide: IgG antibody (peptide-reactive IgG) |
| --- | --- | --- | --- |
| RLAEYQAYI [SART3 309] | 0/6 | 0/9 |  |
| DYSARWNEI [SART2 93] |  | 0/19 |  |
| LIADFLSGL [UBE85] |  | 0/2 |  |
| ILPRKHHRI [UBE208] | 0/1 | 0/1 |  |
| ILGELREKV [WHSC141] |  | 0/8 |  |
| SYTRLFLIL [SART2 899] | 0/7 |  |  |
| EYCLKFTKL [ART1 170] | 0/7 | 0/9 |  |
| DFMIQGGDF [CypB91] | 0/17 |  |  |
| RIIYDRKFL [EIF51] | 0/1 | 0/1 |  |
| KLVERLGAA [Ick246] |  | 0/7 |  |
| ALVEFEDVL [HNRPL140] | 0/5 | 0/5 | 0/5 |
| ASLDSDPWV [WHSC103] | 0/6 |  |  |
| KFHRVIKDF [CypB84] | 0/3 | 0/4 |  |
| KLKHYGPGWV [CypB129] | 0/6 |  |  |
| DVWSFGILL [Ick422] |  |  | 0/10 |
| DYPSLSATDI [ART4 75] |  |  | 0/15 |
| AFLRHAAL [ART4 13] | 0/1 | 0/4 | 0/2 |
| LLQAEAPRL [SART3 302] | 0/4 | 0/6 | 0/5 |
